According to publication PMC5371393 (Journal of Medicinal Chemistry, 2016):

What was measured:
[1] = molecular target: nucleotide-binding domain (NBD) of human HSC70 (HSC70-NBD residues 1–381) (Homo sapiens, UniProt P11142); assay: SPR affinity against immobilised HSC70-NBD; conditions: for fold increase in affinity compared to adenosine 1: comparator adenosine 1; for binding / affinity in words: SPR, HSC70-NBD, concentrations up to 1 mM; for fold improvement in affinity compared to 8-N-methylaminoadenosine 4: comparator 4 (Table 1, entry 2)
HSP70 = conditions: previously described affinity of ADP for HSP70; cited from earlier work

Chain of nucleotide-binding domain (NBD) of human HSC70 (HSC70-NBD residues 1–381) (P11142 1-381): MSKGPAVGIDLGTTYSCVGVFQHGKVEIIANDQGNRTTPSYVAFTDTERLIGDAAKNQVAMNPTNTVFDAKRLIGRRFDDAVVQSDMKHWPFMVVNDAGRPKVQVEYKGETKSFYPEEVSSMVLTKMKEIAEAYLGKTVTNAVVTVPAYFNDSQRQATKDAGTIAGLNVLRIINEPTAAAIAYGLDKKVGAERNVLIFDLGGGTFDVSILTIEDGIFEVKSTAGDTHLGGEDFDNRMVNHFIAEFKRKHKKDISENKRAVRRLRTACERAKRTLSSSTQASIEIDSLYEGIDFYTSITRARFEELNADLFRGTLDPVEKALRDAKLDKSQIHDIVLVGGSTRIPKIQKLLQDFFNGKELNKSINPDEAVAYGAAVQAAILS

Nc1ncnc2c1nc(N)n2[C@@H]1O[C@H](CO)[C@@H](O)[C@H]1O [Compound 3, 8-aminoadenosine, reference compound]
fold increase in affinity compared to adenosine 1 ([1]; SPR KD): 16 fold

CNc1nc2c(N)ncnc2n1[C@@H]1O[C@H](CO)[C@@H](O)[C@H]1O [Compound 4, (2R,3R,4S,5R)-2-(6-Amino-8-(methylamino)-9H-purin-9-yl)-5-(hydroxymethyl)tetrahydrofuran-3,4-diol]
fold drop in affinity compared to 8-aminoadenosine 3 ([1]; SPR KD, comparator 3): 2.5 fold

COc1nc2c(N)ncnc2n1[C@@H]1O[C@H](CO)[C@@H](O)[C@H]1O [Compound 6, (2R,3R,4S,5R)-2-(6-Amino-8-methoxy-9H-purin-9-yl)-5-(hydroxymethyl)tetrahydrofuran-3,4-diol]
binding / affinity in words [1]: complete loss of activity

CNc1nc2c(N)ncnc2n1[C@@H]1O[C@H](C)[C@@H](O)[C@H]1O [Compound 7, (2R,3R,4S,5R)-2-(6-Amino-8-(methylamino)-9H-purin-9-yl)-5-methyltetrahydrofuran-3,4-diol]
fold drop in affinity compared with 8-N-methylaminoadenosine 4 ([1]; SPR KD, comparator 4): 1.6 fold

Nc1ncnc2c1ccn2[C@@H]1O[C@H](CO)[C@@H](O)[C@H]1O [Compound 8, Tubercidin, reference compound]
fold increase in affinity compared to adenosine 1 ([1]; SPR KD): 4 fold

N#Cc1cn([C@@H]2O[C@H](CO)[C@@H](O)[C@H]2O)c2ncnc(N)c12 [Compound 9, Toyocamycin, reference compound]
binding / affinity in words [1]: comparable affinity to adenosine 1

NC(=O)c1cn([C@@H]2O[C@H](CO)[C@@H](O)[C@H]2O)c2ncnc(N)c12 [Compound 10, Sangivamycin, reference compound]
fold increase in affinity compared to adenosine 1 ([1]; SPR KD): 35 fold
half-life ([1]; SPR off-rate analysis): too short to be observed

CNc1c(C#N)c2c(N)ncnc2n1[C@@H]1O[C@H](CO)[C@@H](O)[C@H]1O [Compound 12, 4-Amino-7-((2R,3R,4S,5R)-3,4-dihydroxy-5-(hydroxymethyl)tetrahydrofuran-2-yl)-6-(methylamino)-7H-pyrrolo[2,3-d]pyrimidine-5-carbonitrile]
fold improvement in affinity compared to 8-N-methylaminoadenosine 4 ([1]; SPR KD): 5 fold
fold improvement in activity compared to toyocamycin 9 ([1]; SPR KD, comparator 9): 27 fold

CNc1c(C(N)=O)c2c(N)ncnc2n1[C@@H]1O[C@H](CO)[C@@H](O)[C@H]1O [Compound 13, 4-Amino-7-((2R,3R,4S,5R)-3,4-dihydroxy-5-(hydroxymethyl)tetrahydrofuran-2-yl)-6-(methylamino)-7H-pyrrolo[2,3-d]pyrimidine-5-carboxamide]
fold drop in affinity compared to sangivamycin 10 ([1]; SPR KD, comparator 10): 7 fold

N#Cc1c(NCc2ccccc2)n([C@@H]2O[C@H](CO)[C@@H](O)[C@H]2O)c2ncnc(N)c12 [Compound 14, 4-Amino-6-(benzylamino)-7-((2R,3R,4S,5R)-3,4-dihydroxy-5-(hydroxymethyl)tetrahydrofuran-2-yl)-7H-pyrrolo[2,3-d]pyrimidine-5-carbonitrile]
binding / affinity in words [1]: little change in affinity

Nc1ncnc2c1nc(NCc1ccccc1)n2[C@@H]1O[C@H](CO)[C@@H](O)[C@H]1O [Compound 15, (2R,3R,4S,5R)-2-(6-Amino-8-(benzylamino)-9H-purin-9-yl)-5-(hydroxymethyl)tetrahydrofuran-3,4-diol]
fold improvement in affinity compared to 8-N-methylaminoadenosine 4 ([1]; SPR KD): 12 fold

Nc1ncnc2c1ncn2[C@@H]1O[C@H](COP(=O)(O)OP(=O)(O)O)[C@@H](O)[C@H]1O [Compound 16, adenosine diphosphate]
Kd (HSP70): 500 nM

Nc1ncnc2c1nc(NCc1ccc(Cl)cc1)n2[C@@H]1O[C@H](CO)[C@@H](O)[C@H]1O [Compound 18, (2R,3R,4S,5R)-2-(6-Amino-8-((4-chlorobenzyl)amino)-9H-purin-9-yl)-5-(hydroxymethyl)tetrahydrofuran-3,4-diol]
fold improvement in affinity compared to 8-N-methylaminoadenosine 4 ([1]; SPR KD): 60 fold
fold improvement in affinity compared to compound 15 ([1]; SPR KD, comparator 15): 5 fold
